Reference: US11207337B2, “Co-therapy comprising canagliflozin and phentermine for the treatment of obesity and obesity related disorders” (Janssen Pharmaceutica NV, priority 2015, dated 2021)

Key:
[1] = 26 week placebo-controlled clinical trial: pulse rate (vital signs); format: in vivo, human
Procedure: (§1) The safety and efficacy of combination treatment with 300 mg canagliflozin and 15 mg phentermine was investigated in a 26 week, randomized, double-blind, placebo-controlled, parallel group, multi-center study. (Complete study protocol filed and available as STUDY 28431754-OBE2002 on www.clinicaltrials.gov).
(§2) The study began with a 4-week single blind placebo run-in period. […] All subjects were provided with diet and exercise counseling for weight loss (standardized non-pharmacological therapy) and were instructed to follow the diet and exercise program throughout the study.
(§3) The modified intent-to-treat (mITT) analysis set included all randomized subjects who had received at least one dose of study drug. The primary efficacy endpoint was percent change from baseline in body weight at Week 26. The secondary efficacy endpoints included (1) proportion of subjects with weight loss ≥5% at Week 26, (2) absolute change from baseline in SBP ([…]) at Week 26, and (3) absolute change from baseline in body weight at Week 26. The inclusion of canagliflozin 300 mg and phentermine 15 mg as separate treatment groups allowed for a descriptive estimate of relative contribution of the individual components to the observed weight loss in the co-therapy canagliflozin 300 mg/phentermine 15 mg group and provided efficacy and safety data on canagliflozin 300 mg in the non-diabetic, overweight/obese population. Safety analyses included treatment-emergent adverse events (referred to as adverse events in this document), laboratory tests (including chemistry and hematology), and vital signs (blood pressure and pulse rate).

[2] = 26 week placebo-controlled clinical trial: systolic and diastolic blood pressure; format: in vivo, human; settings: Week 26; for Systolic Blood Pressure Change From Baseline, LS Mean: MMRM; for Diastolic Blood Pressure, Mean change / Diastolic Blood Pressure, Median change / Systolic Blood Pressure, Mean change / Systolic Blood Pressure, Median change: change from baseline, observed; for Systolic Blood Pressure Change From Baseline, Diff. of LS Means Minus Placebo: placebo-subtracted
Procedure: as §1, §2, §3
The reduction in diastolic blood pressure of −1.6 mm Hg (baseline 80 mm Hg) was not statistically significant.

[3] = 26 week randomized, double-blind, placebo-controlled clinical trial: body weight; format: in vivo, human; settings: for Absolute Body Weight Change from Baseline at Week 26, LS Mean / Body weight % Change from Baseline at Week 26, LS Mean: MMRM; for Body weight % Change from Baseline at Week 26, LS Mean: overweight or obese non-diabetic adults; for Absolute Body Weight Change from Baseline at Week 26, Diff. of LS Means Minus Placebo / Body weight % Change from Baseline at Week 26, Diff. of LS Means Minus Placebo: placebo-subtracted; for estimated contribution to the weight loss observed at Week 26: share of the weight loss in the co-therapy group
Procedure: as §1, §2, §3
The change from baseline in absolute body weight at Week 26 was analyzed with an MMRM similar to the primary efficacy endpoint.

[4] = metformin on its own, in the diabetic; cited from earlier work
C. elegans = settings: BOHB treatment of the worm (C. elegans); Edwards et al. 2014; cited from earlier work
[5] = Week 26, change from baseline, observed

| Structure (SMILES) | Pulse Rate, Mean change ([1]; human, in vivo) [BEATS/MIN] | Pulse Rate, Median change ([1]; human, in vivo) [BEATS/MIN] | pulse, LS Mean change from baseline (SE) ([1]; human, in vivo) | Systolic Blood Pressure Change From Baseline, LS Mean [2] [mmHg] | Diastolic Blood Pressure, Mean change [2] [mmHg] | Diastolic Blood Pressure, Median change [2] [mmHg] | Systolic Blood Pressure, Mean change [2] [mmHg] | Systolic Blood Pressure, Median change [2] [mmHg] | Systolic Blood Pressure Change From Baseline, Diff. of LS Means Minus Placebo [2] [mmHg] | Absolute Body Weight Change from Baseline at Week 26, LS Mean [3] [kg] | Body weight % Change from Baseline at Week 26, LS Mean [3] [%] | Absolute Body Weight Change from Baseline at Week 26, Diff. of LS Means Minus Placebo [3] [kg] | Body weight % Change from Baseline at Week 26, Diff. of LS Means Minus Placebo [3] [%] | estimated contribution to the weight loss observed at Week 26 [3] [%] | average improvement in the HbA1c value [4] | increase in lifespan (C. elegans) [%] | pulse, LS Mean change from baseline (SE) ([1]; Week 26) | Pulse Rate, Mean change [1, 5] [BEATS/MIN] | Pulse Rate, Median change [1, 5] [BEATS/MIN] |
| --- | --- | --- | --- | --- | --- | --- | --- | --- | --- | --- | --- | --- | --- | --- | --- | --- | --- | --- | --- |
| Cc1ccc([C@@H]2O[C@H](CO)[C@@H](O)[C@H](O)[C@H]2O)cc1Cc1ccc(-c2ccc(F)cc2)s1 [Cana 300 mg, (1S)-1,5-anhydro-1-[3-[[5-(4-fluorophenyl)-2-thienyl]methyl]-4-methylphenyl]-D-glucitol] | 1.64 | 0.83 | 0.7 (1.0) bpm | −3.1 | −1.32 | −1.17 | −3.31 | −1.67 | −0.4 | -1.9 | −1.9 | -1.3 | −1.3 | 18 |  |  |  |  |  |
| CN(C)C(=N)N=C(N)N [metformin] |  |  |  |  |  |  |  |  |  |  |  |  |  |  | 1.0-1.5% |  |  |  |  |
| CC(O)CC(=O)O (stereo not drawn) [BOHB, beta-hydroxybutyrate] |  |  |  |  |  |  |  |  |  |  |  |  |  |  |  | ~20 |  |  |  |
| CC(C)(N)Cc1ccccc1 [Phen 15 mg, 2-methyl-1-phenylpropan-2-amine] |  |  |  | −1.4 | 0.55 | 0.67 | −1.13 | −0.33 | 1.3 | -4.1 | −4.1 | -3.5 | −3.5 | 50 |  |  | 4.1 (1.0) bpm | 5.02 | 4.67 |
